Patent publication US7138140B2, “Suplatast tosilate crystals” (Taiho Pharmaceutical Co., Ltd., priority 2001, dated 2006)

Tests used:
Assay type in all cases: physicochemical
[1] = Measurement of an optically active substance ratio (chiral stationary phase column); conditions: p-toluenesulfonate; for Optically active substance ratio ((+)/(−)): crystals, Chiralcel OD-H column; for Optically active substance ratio of the suplatast tosilate in the mother liquor: mother liquor after crystallization
Experimental: [Test 1] Measurement of an Optically Active Substance Ratio
The optically active substance ratio of each of the suplatast tosilate crystals of the present invention obtained in Examples 1 to 3, and the suplatast tosilate first crystals obtained in Comparative Examples 1 to 3 was measured using a chiral stationary phase column (“Chiralcel OD-H”, 4.6 mm×25 cm, product of Daicel Chemical Industries) with n-hexane ethanol-trifluoroacetic acid-diethylamine (750:250:5:1) as a mobile phase.
The optically active substance ratio of the suplatast tosilate in the mother liquor in each of Examples and Comparative Examples was measured as described above. The ratio in Example 1 to 6 was from 0.99 to 1.01, while it was 0.57 in Comparative Example 1, 0.87 in Comparative Example 2, and 0.42 in Comparative Example 3. Accordingly, the invention crystal can be recovered again from the mother liquor, while the first crystal cannot be recovered from the mother liquor. Such a phenomenon owes to optical enrichment phenomenon typically observed upon formation of the first crystal.

[2] = Hygroscopicity Test 2 (storage at 40° C., relative humidity 50%, 14 days); conditions: for Change in appearance on storage: p-toluenesulfonate
Experimental: [Test 3] Hygroscopicity Test 2
Each of the suplatast tosilate crystals of the invention obtained in Example 1, and the second crystals obtained in accordance with the process of Comparative Example 4 (each, 0.5 g) were stored at 40° C. and relative humidity of 50% for 14 days, followed by observation of their appearance, powder X-ray diffraction and differential scanning calorimetry (DSC) in order to investigate storage stability.

[3] = Heat Stability Test (60° C., 3 months, glass air-tight container); conditions: for Decomposition product (wt. %) formed, Lot 1: Lot 1, p-toluenesulfonate
Experimental: [Test 4] Heat Stability Test
The invention crystals of suplatast tosilate obtained in accordance with the process of Example 1 and commercially available suplatast tosilate first crystals, each 3.6 g, were stored at 60° C. for 3 months in a glass air-tight container and the formation amount and powder X-ray diffraction of a decomposition product ((±)-4-(3-ethoxy-2-hydroxypropoxy) aniline derivative) were measured to investigate heat storage stability.

[4] = Hygroscopicity Test 1 (storage at 25° C., 75% RH, time-dependent weight change); conditions: relative humidity 75%, FIG. 4
Experimental: FIG. 4 is a graph illustrating a water content increase, at 25° C. and relative humidity of 75%, of the invention crystal of suplatast tosilate (Example 1) suplatast tosilate first crystal (commercially available product) and suplatast tosilate second crystal (Comparative Example 4).
[Test 2] Hygroscopicity Test 1
In a dessicator (adjusted to 75% RH) having a saturated aqueous solution of sodium chloride charged therein, 1.0 g of each of the suplatast tosilate crystals of the invention obtained in Example 1, commercially available suplatast tosilate first crystals and the suplatast tosilate second crystals obtained in Comparative Example 4 were stored at 25° C. and a time-dependent weight change was measured.

[5] = 2 months, Lot 2, p-toluenesulfonate
[6] = 2 months, Lot 3, p-toluenesulfonate
[7] = 3 months, Lot 2, p-toluenesulfonate
[8] = 3 months, Lot 3, p-toluenesulfonate

## CCOCC(O)COc1ccc(NC(=O)CC[S+](C)C)cc1.Cc1ccc(S(=O)(=O)[O-])cc1 (racemic) [Comparative Example 2, (±)-[2-[4-(3-ethoxy-2-hydroxypropoxy)phenylcarbamoyl]ethyl] dimethylsulfonium p-toluenesulfonate]
[1]
  Optically active substance ratio ((+)/(−)): 0.97
  Optically active substance ratio of the suplatast tosilate in the mother liquor: 0.87

## CCOCC(O)COc1ccc(NC(=O)CC[S+](C)C)cc1.Cc1ccc(S(=O)(=O)[O-])cc1 (racemic) [Invention crystal, (±)-[2-[4-(3-ethoxy-2-hydroxypropoxy)phenylcarbamoyl]ethyl] dimethylsulfonium p-toluenesulfonate]
[2]
  Change in powder X-ray diffraction peaks and DSC on storage: almost free from a change in powder X-ray diffraction peaks and in DSC
  Change in appearance on storage: almost free from a change in appearance
[3]; 1 month
  Decomposition product (wt. %) formed, Lot 1: 0.0 wt. %
[3]; 1 month, Lot 2
  Decomposition product (wt. %) formed, Lot 2: 0.0 wt. %
[3]; 1 month, Lot 3
  Decomposition product (wt. %) formed, Lot 3: 0.0 wt. %
[3]; 2 months
  Decomposition product (wt. %) formed, Lot 1: 0.0 wt. %
[3]; [5]
  Decomposition product (wt. %) formed, Lot 2: 0.0 wt. %
[3]; [6]
  Decomposition product (wt. %) formed, Lot 3: 0.0 wt. %
[3]; 3 months
  Decomposition product after 3 months (in words): no decomposition product appeared
  Decomposition product (wt. %) formed, Lot 1: 0.0 wt. %
[3]; [7]
  Decomposition product (wt. %) formed, Lot 2: 0.0 wt. %
[3]; [8]
  Decomposition product (wt. %) formed, Lot 3: 0.0 wt. %
[4]
  Hygroscopicity (water content increase): lower hygroscopicity than each of the first crystal and second crystal

## CCOCC(O)COc1ccc(NC(=O)CC[S+](C)C)cc1.Cc1ccc(S(=O)(=O)[O-])cc1 (racemic) [First crystal, (±)-[2-[4-(3-ethoxy-2-hydroxypropoxy)phenylcarbamoyl]ethyl] dimethylsulfonium p-toluenesulfonate]
[3]; 1 month
  Decomposition product (wt. %) formed, Lot 1: 0.1 wt. %
[3]; 1 month, Lot 2
  Decomposition product (wt. %) formed, Lot 2: 0.0 wt. %
[3]; 1 month, Lot 3
  Decomposition product (wt. %) formed, Lot 3: 0.0 wt. %
[3]; 2 months
  Decomposition product (wt. %) formed, Lot 1: 1.1 wt. %
[3]; [5]
  Decomposition product (wt. %) formed, Lot 2: 0.7 wt. %
[3]; [6]
  Decomposition product (wt. %) formed, Lot 3: 0.5 wt. %
[3]; 3 months
  Decomposition product formed after 3-month storage (over the lots): about 1.7 wt. %
  Decomposition product (wt. %) formed, Lot 1: 2.1 wt. %
[3]; [7]
  Decomposition product (wt. %) formed, Lot 2: 1.5 wt. %
[3]; [8]
  Decomposition product (wt. %) formed, Lot 3: 1.4 wt. %

## CCOCC(O)COc1ccc(NC(=O)CC[S+](C)C)cc1.Cc1ccc(S(=O)(=O)[O-])cc1 (racemic) [second crystal, (±)-[2-[4-(3-ethoxy-2-hydroxypropoxy)phenylcarbamoyl]ethyl] dimethylsulfonium p-toluenesulfonate]
[2]
  Change in appearance on storage: showed deliquescence after storage for one week

## CCOCC(O)COc1ccc(NC(=O)CC[S+](C)C)cc1.Cc1ccc(S(=O)(=O)[O-])cc1 (racemic) [Comparative Example 3, (±)-[2-[4-(3-ethoxy-2-hydroxypropoxy)phenylcarbamoyl]ethyl] dimethylsulfonium p-toluenesulfonate]
[1]
  Optically active substance ratio ((+)/(−)): 0.94
  Optically active substance ratio of the suplatast tosilate in the mother liquor: 0.42

## CCOCC(O)COc1ccc(NC(=O)CC[S+](C)C)cc1.Cc1ccc(S(=O)(=O)[O-])cc1 (racemic) [Example 3, (±)-[2-[4-(3-ethoxy-2-hydroxypropoxy)phenylcarbamoyl]ethyl] dimethylsulfonium p-toluenesulfonate]
[1]
  Optically active substance ratio ((+)/(−)): 1.00

## CCOCC(O)COc1ccc(NC(=O)CC[S+](C)C)cc1.Cc1ccc(S(=O)(=O)[O-])cc1 (racemic) [Example 6, (±)-[2-[4-(3-ethoxy-2-hydroxypropoxy)phenylcarbamoyl]ethyl] dimethylsulfonium p-toluenesulfonate]
[1]
  Optically active substance ratio ((+)/(−)): around 1.00

## CCOCC(O)COc1ccc(NC(=O)CC[S+](C)C)cc1.Cc1ccc(S(=O)(=O)[O-])cc1 (racemic) [Example 1, (±)-[2-[4-(3-ethoxy-2-hydroxypropoxy)phenylcarbamoyl]ethyl] dimethylsulfonium p-toluenesulfonate]
[1]
  Optically active substance ratio ((+)/(−)): 1.00

## CCOCC(O)COc1ccc(NC(=O)CC[S+](C)C)cc1.Cc1ccc(S(=O)(=O)[O-])cc1 (racemic) [Comparative Example 1, (±)-[2-[4-(3-ethoxy-2-hydroxypropoxy)phenylcarbamoyl]ethyl] dimethylsulfonium p-toluenesulfonate]
[1]
  Optically active substance ratio ((+)/(−)): 1.09
  Optically active substance ratio of the suplatast tosilate in the mother liquor: 0.57

## CCOCC(O)COc1ccc(NC(=O)CC[S+](C)C)cc1.Cc1ccc(S(=O)(=O)[O-])cc1 (racemic) [Example 2, (±)-[2-[4-(3-ethoxy-2-hydroxypropoxy)phenylcarbamoyl]ethyl] dimethylsulfonium p-toluenesulfonate]
[1]
  Optically active substance ratio ((+)/(−)): 1.00
